Assay results reported in US20240381872A1, “SUBSTITUTED 2,3-DIHYDRO[1,3]THIAZOLO[4,5-B]PYRIDINES, SALTS THEREOF AND THEIR USE AS HERBICIDALLY ACTIVE SUBSTANCES” (BAYER AKTIENGESELLSCHAFT, priority 2021, published 2024).

Key:
Assay type in all cases: in vivo
[1] = system: Oryza sativa (ORYZA); assay: Pre-emergence effects on crop plants, section D (Table D3); details: visual grading after ca. 3 weeks
Method in brief: (§1)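 Pre-emergence soil-surface spray, 320 g/ha or below, 600 l water/ha + 0.5% additive; WP/EC formulations; sandy loam; greenhouse; visual % damage vs untreated at ~3 wk.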

[2] = system: Brassica napus (BRSNW); assay: Pre-emergence effects on crop plants, section D (Table D5); details: visual grading after ca. 3 weeks
Method in brief: as §1

[3] = system: Brassica napus (BRSNW); assay: Post-emergence effects on crop plants, section F (Table F5); details: for post-emergence activity against BRSNW in %: crop plant damage
Method in brief: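 Sandy loam, greenhouse, controlled conditions. Spray at single-leaf stage (2–3 wk post-sowing); WP/EC aqueous suspension/emulsion + 0.5% additive, 600 l water/ha; rate ≤320 g/ha. Visual scoring ca. 3 wk post-spray vs untreated, % effect.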

[4] = system: Alopecurus myosuroides (ALOMY); assay: Herbicidal post-emergence action, section B (Table B2); details: rated visually about 3 weeks after treatment vs untreated controls, 100% = plants have died, 0% = like control plants
Protocol: (§2) Seeds of mono- and dicotyledonous weed plants were placed in plastic pots in sandy loam soil (doubly sown with in each case one species of mono- or dicotyledonous weed plants per pot), covered with soil and cultivated in a greenhouse under controlled growth conditions. 2 to 3 weeks after sowing, the test plants were treated at the one-leaf stage. The compounds of the invention, formulated in the form of wettable powders (WP) or as emulsion concentrates (EC), were applied onto the green parts of the plants as aqueous suspension or emulsion with addition of 0.5% additive at a water application rate of 600 liters per hectare (converted). After the test plants had been kept in the greenhouse under optimum growth conditions for about 3 weeks, the activity of the preparations was rated visually in comparison to untreated controls. For example, 100% activity=the plants have died, 0% activity=like control plants.

[5] = system: Matricaria inodora (MATIN); assay: Herbicidal post-emergence action, section B (Table B6); details: visual rating about 3 weeks after treatment vs untreated controls
Protocol: as §2

[6] = system: Kochia scoparia (KCHSC); assay: Herbicidal pre-emergence action, section C (Table C13); details: application rate 320 g/ha, visual grading after ca. 3 weeks; for pest or weed control at 320 g/ha: Bassia scoparia, pre-emergence, 504 h, read-out: pre-emergence activity against KCHSC in %
Description: (§3) Seeds of mono- and dicotyledonous weed plants and crop plants were sown, in plastic or organic planting pots, in sandy loam and covered with soil. The compounds according to the invention, formulated in the form of wettable powders (WP) or as emulsifiable concentrates (EC), were applied to the surface of the covering soil as aqueous suspension or emulsion, with the addition of 0.5% of an additive, at an application rate of 600 l of water/ha (converted). Following treatment, the pots were placed in a greenhouse and kept under optimum growth conditions for the test plants. The visual grading of the damage to the test plants was carried out after ca. 3 weeks in comparison to untreated controls (herbicidal effect in percent (%): 100% effect=plants have died off, 0% effect=as control plants).

[7] = system: Viola tricolor (VIOTR); assay: Herbicidal pre-emergence action, section C (Table C9); details: visual grading after ca. 3 weeks; for pest or weed control at 320 g/ha / pest or weed control at 80 g/ha: Viola tricolor, pre-emergence, 504 h, read-out: pre-emergence activity against VIOTR in %
Description: as §3

[8] = system: Setaria viridis (SETVI); assay: Herbicidal post-emergence action, section E (Table E8); details: visual assessment ca. 3 weeks after spraying; for post-emergence activity against SETVI in % / pest or weed control at 320 g/ha: application rate 320 g/ha; for pest or weed control at 320 g/ha / pest or weed control at 80 g/ha: Setaria viridis, 504 h, read-out: post-emergence activity against SETVI in %; for pest or weed control at 80 g/ha: application rate 80 g/ha
Description: (§4) Seeds of mono- and dicotyledonous weed plants and crop plants were sown, in plastic or organic planting pots, in sandy loam, covered with soil and grown in a greenhouse under controlled growth conditions. 2 to 3 weeks after sowing, the test plants were sprayed in the single-leaf stage. The compounds according to the invention, formulated in form of wettable powders (WP) or as emulsifiable concentrates (EC), were sprayed onto the green plant parts as aqueous suspension or emulsion, with the addition of 0.5% of an additive, at an application rate of 600 l of water/ha (converted). The test plants were placed in the greenhouse for ca. 3 weeks under optimum growth conditions, and then the effect of the preparations was assessed visually in comparison with untreated controls (herbicidal effect in percent (%): 100% effect=plants have died off, 0% effect=as control plants).

[9] = system: Kochia scoparia (KCHSC); assay: Herbicidal post-emergence action, section E (Table E11); details: visual assessment ca. 3 weeks after spraying; for pest or weed control at 80 g/ha: Bassia scoparia, 504 h, read-out: post-emergence activity against KCHSC in %
Description: as §4

[10] = system: Lolium rigidum (LOLRI); assay: Herbicidal post-emergence action, section E (Table E6); details: application rate 320 g/ha, visual assessment ca. 3 weeks after spraying; for pest or weed control at 320 g/ha: Lolium rigidum, 504 h, read-out: post-emergence activity against LOLRI in %
Description: as §4

[11] = system: Avena fatua (AVEFA); assay: Herbicidal pre-emergence action, section C (Table C4); details: 504 h, application rate 320 g/ha, visual grading ca. 3 weeks after treatment vs untreated controls, 100% = plants have died off, 0% = as control plants, read-out: pre-emergence activity against AVEFA
Description: as §3

[12] = Brassica napus, 504 h, application rate 80 g/ha, read-out: post-emergence activity against BRSNW in %
[13] = Alopecurus myosuroides, post-emergence, 504 h, application rate 1280 g/ha, read-out: post-emergence activity against ALOMY
[14] = Tripleurospermum inodorum, post-emergence, 504 h, application rate 1280 g/ha, read-out: post-emergence activity against MATIN in %

Compound: CC(=O)N1CSc2cc(Br)c(-c3ccccc3Cl)nc21 [Example I-055, 1-[6-bromo-5-(2-chlorophenyl)[1,3]thiazolo[4,5-b]pyridin-3(2H)-yl]ethanone]
- pre-emergence activity against ORYZA in % (crop plant damage) ([1]; application rate 320 g/ha): 20%
- pre-emergence activity against BRSNW in % (crop plant damage) ([2]; application rate 80 g/ha): 20%
- crop plant damage (phytotoxicity) in % at 80 g/ha [3, 12]: 10%

Compound: Cc1cc2c(nc1-c1cccc(C)c1F)NCS2 [Example I-113]
- post-emergence activity against ALOMY ([4]; application rate 1280 g/ha): 90%
- post-emergence activity against MATIN in % ([5]; application rate 1280 g/ha): 90%
- pre-emergence activity against KCHSC in % [6]: 80%
- post-emergence activity against BRSNW in % ([3]; application rate 320 g/ha): 20%

Compound: Cc1cc2c(nc1-c1ccccc1F)N(C(=O)C1(C)CC(Cl)=NO1)CS2 (centres unmarked) [Example I-083]
- post-emergence activity against ALOMY ([4]; application rate 1280 g/ha): 90%
- post-emergence activity against MATIN in % ([5]; application rate 320 g/ha): 90%
- pre-emergence activity against VIOTR in % ([7]; application rate 80 g/ha): 90%
- pre-emergence activity against ORYZA in % (crop plant damage) ([1]; application rate 80 g/ha): 20%
- post-emergence activity against SETVI in % [8]: 80%

Compound: CC1(C(=O)N2CSc3cc(Br)c(-c4ccccc4Cl)nc32)CC(Cl)=NO1 (centres unmarked) [Example I-141, [6-bromo-5-(2-chlorophenyl)[1,3]thiazolo[4,5-b]pyridin-3(2H)-yl](3-chloro-5-methyl-4,5-dihydro-1,2-oxazol-5-yl)methanone]
- pest or weed control at 320 g/ha [6]: 90%
- pre-emergence activity against BRSNW in % (crop plant damage) ([2]; application rate 80 g/ha): 20%
- pest or weed control at 80 g/ha ([9]; application rate 80 g/ha): 80%
- crop plant damage (phytotoxicity) in % at 80 g/ha [3, 12]: 20%

Compound: CC(C)C(=O)N1C[S+]([O-])c2cc(Br)c(-c3ccccc3)nc21 (centres unmarked) [Example I-067]
- pest or weed control at 320 g/ha ([7]; application rate 320 g/ha): 100%
- pre-emergence activity against ORYZA in % (crop plant damage) ([1]; application rate 80 g/ha): 20%
- pest or weed control at 320 g/ha [8]: 80%
- crop plant damage (phytotoxicity) in % at 80 g/ha [3, 12]: 0%

Compound: CC1(C(=O)N2CSc3cc(Br)c(-c4ccccc4)nc32)CC(Cl)=NO1 (centres unmarked) [Example I-139]
- pre-emergence activity against KCHSC in % [6]: 90%
- post-emergence activity against KCHSC in % ([9]; application rate 320 g/ha): 90%

Compound: Cc1cc2c(nc1-c1ccccc1Cl)NCS2 [Example I-049, 5-(2-chlorophenyl)-6-methyl-2,3-dihydro[1,3]thiazolo[4,5-b]pyridine]
- pest or weed control at 320 g/ha [8]: 80%

Compound: COCC1(C(=O)N2CSc3cc(C)c(-c4ccccc4F)nc32)CC(Cl)=NO1 (centres unmarked) [Example I-128]
- post-emergence activity against MATIN in % ([5]; application rate 1280 g/ha): 90%
- pre-emergence activity against KCHSC in % [6]: 90%
- post-emergence activity against LOLRI in % [10]: 80%
- post-emergence activity against SETVI in % [8]: 80%
- post-emergence activity against KCHSC in % ([9]; application rate 80 g/ha): 90%

Compound: CCOCCS(=O)(=O)N1C[S+]([O-])c2cc(C)c(-c3ccccc3F)nc21 (centres unmarked) [Example I-127]
- pest or weed control at 320 g/ha ([5]; Tripleurospermum inodorum, post-emergence, 504 h, application rate 320 g/ha, read-out: post-emergence activity against MATIN in %): 90%
- pest or weed control at 320 g/ha [6]: 90%
- pest or weed control at 320 g/ha [10]: 80%
- pest or weed control at 320 g/ha [8]: 80%
- pest or weed control at 80 g/ha ([9]; application rate 80 g/ha): 90%

Compound: Clc1ccccc1-c1nc2c(cc1Br)SCN2 [Example I-041, 6-bromo-5-(2-chlorophenyl)-2,3-dihydro[1,3]thiazolo[4,5-b]pyridine]
- pest or weed control at 1280 g/ha [4, 13]: 90%
- pre-emergence activity against ORYZA in % (crop plant damage) ([1]; application rate 320 g/ha): 20%

Compound: CCS(=O)(=O)N1CSc2cc(C)c(-c3ccccc3F)nc21 [Example I-060, 3-(ethylsulfonyl)-5-(2-fluorophenyl)-6-methyl-2,3-dihydro[1,3]thiazolo[4,5-b]pyridine]
- pest or weed control at 1280 g/ha [4, 13]: 90%
- pest or weed control at 1280 g/ha [5, 14]: 90%
- pest or weed control at 320 g/ha [11]: 90%
- pest or weed control at 80 g/ha ([7]; application rate 80 g/ha): 90%
- pest or weed control at 320 g/ha [8]: 90%

Compound: Cc1cc2c(nc1-c1cccc(F)c1F)NCS2 [Example I-029, 5-(2,3-difluorophenyl)-6-methyl-2,3-dihydro[1,3]thiazolo[4,5-b]pyridine]
- pest or weed control at 1280 g/ha [4, 13]: 90%

Compound: Cc1cc2c(nc1-c1ccccc1F)NCS2 [Example I-007, 5-(2-fluorophenyl)-6-methyl-2,3-dihydro[1,3]thiazolo[4,5-b]pyridine]
- pest or weed control at 320 g/ha ([4]; Alopecurus myosuroides, post-emergence, 504 h, application rate 320 g/ha, read-out: post-emergence activity against ALOMY): 90%
- pest or weed control at 1280 g/ha [5, 14]: 90%
- pest or weed control at 320 g/ha [11]: 80%
- pest or weed control at 80 g/ha [8]: 90%

Compound: COC(=O)CCC(=O)N1CSc2cc(Cl)c(-c3ccccc3F)nc21 [Example I-003]
- post-emergence activity against ALOMY ([4]; application rate 320 g/ha): 100%
- pre-emergence activity against BRSNW in % (crop plant damage) ([2]; application rate 80 g/ha): 20%
- post-emergence activity against SETVI in % [8]: 80%

Compound: COC(=O)CCC(=O)N1CSc2cc(C)c(-c3ccccc3F)nc21 [Example I-010]
- post-emergence activity against MATIN in % ([5]; application rate 1280 g/ha): 90%

Compound: Cc1cc2c(nc1-c1ccccc1F)N(S(=O)(=O)Cc1ccc(F)cc1)CS2 [Example I-122]
- post-emergence activity against ALOMY ([4]; application rate 1280 g/ha): 90%
- post-emergence activity against MATIN in % ([5]; application rate 1280 g/ha): 90%
- pre-emergence activity against VIOTR in % ([7]; application rate 320 g/ha): 80%
- pre-emergence activity against KCHSC in % [6]: 90%
- post-emergence activity against SETVI in % [8]: 80%
- post-emergence activity against KCHSC in % ([9]; application rate 80 g/ha): 80%
- post-emergence activity against BRSNW in % ([3]; application rate 80 g/ha): 0%

Compound: CCS(=O)(=O)N1C[S+]([O-])c2cc(C)c(-c3ccccc3C)nc21 (centres unmarked) [Example I-074]
- pest or weed control at 320 g/ha ([7]; application rate 320 g/ha): 90%

Compound: Fc1ccccc1-c1nc2c(cc1Br)SCN2 [Example I-001, 6-bromo-5-(2-fluorophenyl)-2,3-dihydro[1,3]thiazolo[4,5-b]pyridine]
- pest or weed control at 320 g/ha [11]: 80%
- pre-emergence activity against ORYZA in % (crop plant damage) ([1]; application rate 80 g/ha): 20%
- pre-emergence activity against BRSNW in % (crop plant damage) ([2]; application rate 320 g/ha): 20%
- pest or weed control at 320 g/ha [10]: 90%
- pest or weed control at 80 g/ha [8]: 90%
- crop plant damage (phytotoxicity) in % at 80 g/ha [3, 12]: 20%

Compound: Cc1ccccc1-c1nc2c(cc1C)SCN2C(=O)C1(C)CC(Cl)=NO1 (centres unmarked) [Example I-137]
- post-emergence activity against MATIN in % ([5]; application rate 1280 g/ha): 90%
- pre-emergence activity against KCHSC in % [6]: 100%
- post-emergence activity against KCHSC in % ([9]; application rate 80 g/ha): 90%

Compound: CCc1ccccc1-c1nc2c(cc1C)[S+]([O-])CN2 (centres unmarked) [Example I-047]
- pest or weed control at 80 g/ha ([7]; application rate 80 g/ha): 90%
- crop plant damage (phytotoxicity) in % at 320 g/ha ([3]; Brassica napus, 504 h, application rate 320 g/ha, read-out: post-emergence activity against BRSNW in %): 20%
